In patent US20040029965A1, “Formulations for reducing or eliminating toxicity of enviromental hormones containing ursodeoxycholic acid” (priority 2000, published 2004):

Assays:
Format in all cases: in vivo
C57B1/6J mice [1] = assay: Blood (serum) biochemical changes in mice by a single subcutaneous injection of TCDD
Description: (§1) Male C57B1/6J mice of 5 weeks old having the average weight of 18-22 g which had been bred in CRJ (Charles River in Japan) were purchased and used in this example as experimental animals. Those mice were acclimated under the constant breeding condition, i.e. the temperature of 24±1° C., the humidity of 60±10% and the light and darkness cycle of 12 hours, for one week and thereafter, utilized in the experiment.
(§2) 2,3,7,8-tetrachlorodibenzo-p-dioxin (TCDD) dissolved in toluene (purity of 95% or more as a result of gas chromatography analysis), manufactured by Chem. Services Inc. in USA, was volatilized with nitrogen to obtain powder. The obtained powder was dissolved in a mixed solvent containing acetone and corn oil with a volume ratio of 1:6. The resulting solution each containing 110, 27.5 and 6.9 μg/kg of TCDD was subcutaneously injected to mice at a volume of 5 ml per body weight. […] The mice were supplied with the feed from 10 days before (pre-administration) to 60 days after administration of TCDD (post-administration).
(§3) Upon completion of the experiment for 60 days, the experimental animals were fasted for 24 hours and anesthetized with ether. Then, they were abdominally incised and blood was gathered from abdominal vena cava. They were sacrificed by the release of blood. Liver, kidneys, testes and epididymides were extracted and all the extracted organs were weighed. Only the testes were separately kept and observed under optical and electron microscopes. For biochemical finding test, serum was separated from blood with a centrifuge and the separated serum was analyzed with an automated blood biochemical analyzer, Dimension (Dupont, USA). Blood was put to another blood gathering bottle and then, analyzed with an automated blood cell analyzer, Celldyn (Abbott, USA).
(§4) The results are expressed as Mean±Standard Deviation values. For statistical analysis of the body weight, feed and water uptake, biochemical findings, hematological findings and the weight of organ in an acute toxicity test, verification was performed by one way analysis of variance (ANOVA) in case of equal distribution. In case significance was recognized in ANOVA, the Student's t-test was performed in the levels of p<0.05 and p<0.01.
For biochemical findings in the serum, the levels of glucose (GLU), GOT, GPT, Triglyceride (TG), high density lipoprotein (HDL-C), low density lipoprotein (LDL-C) and alkaline phosphatase (ALP) in serum were measured and the results are shown in the following.

C57B1/6J mice [2] = assay: Effect of UDCA on death (death rate, death time) of mice by a single subcutaneous injection of TCDD
Description: as §1
The Experimental animals were supplied with Purina powdered feed (purchased from Hae Eun Trade) and supplied with water ad libitum. All the animals were weighed twice a week during experimentation.
as §2, §4

C57B1/6J mice [3] = assay: Hematological changes in mice by a single subcutaneous injection of TCDD; design: NEU / LYM / PLT: unit not given here; details: TCDD 6.9 μg/kg + UDCA 0.125 wt %
Description: as §1, §2, §3, §4
For hematological findings, white blood cell (WBC), neutrophil (NEU), lymphocyte (LYM), monocyte (MONO), eosinophil (EOS), basophil (BASO) and red blood cell (RBC) counts, and hemoglobin concentration (HGB), hematocrit (HCT), mean cell volume (MCV), mean corpuscular hemoglobin (MCH), mean corpuscular hemoglobin concentration (MCHC), red blood cell distribution width (RDW) and platelet count (PLT) were measured and the results are as follows.

[4] = TCDD 6.9 μg/kg + UDCA 0.125 wt %
[5] = TCDD 6.9 μg/kg + UDCA 0.25 wt %
[6] = TCDD 27.5 μg/kg + UDCA 0.125 wt %
[7] = TCDD 27.5 μg/kg + UDCA 0.25 wt %
[8] = TCDD 27.5 μg/kg + UDCA 0.5 wt %
[9] = TCDD 110.0 μg/kg + UDCA 0.125 wt %
[10] = TCDD 110.0 μg/kg + UDCA 0.25 wt %
[11] = TCDD 110.0 μg/kg + UDCA 0.5 wt %

C[C@H](CCC(=O)O)[C@H]1CC[C@H]2[C@@H]3[C@@H](O)C[C@@H]4C[C@H](O)CC[C@]4(C)[C@H]3CC[C@]12C [UDCA, 3α, 7β-dihydroxy-5β-cholanoic acid]
ALP (C57B1/6J mice [1]; [4]): 66.78 ± 7.21 IU/l
GLU (C57B1/6J mice [1]; [4]): 128.00 ± 27.26 mg/dL
GOT (C57B1/6J mice [1]; [4]): 49.80 ± 2.74 IU/l
GPT (C57B1/6J mice [1]; [4]): 23.50 ± 8.32 IU/l
HDL-C (C57B1/6J mice [1]; [4]): 45.67 ± 2.74 mg/dL
LDL-C (C57B1/6J mice [1]; [4]): 14.56 ± 6.28 mg/dL
TG (C57B1/6J mice [1]; [4]): 79.56 ± 1129 mg/dL
ALP (C57B1/6J mice [1]; [5]): 72.05 ± 6.63 IU/l
GLU (C57B1/6J mice [1]; [5]): 104.60 ± 24.87 mg/dL
GOT (C57B1/6J mice [1]; [5]): 57.30 ± 4.83 IU/l
GPT (C57B1/6J mice [1]; [5]): 24.00 ± 6.39 IU/l
HDL-C (C57B1/6J mice [1]; [5]): 46.30 ± 5.08 mg/dL
LDL-C (C57B1/6J mice [1]; [5]): 21.20 ± 5.25 mg/dL
TG (C57B1/6J mice [1]; [5]): 75.90 ± 11.55 mg/dL
ALP (C57B1/6J mice [1]; TCDD 6.9 μg/kg + UDCA 0.5 wt %): 85.24 ± 10.28 IU/l
GLU (C57B1/6J mice [1]; TCDD 6.9 μg/kg + UDCA 0.5 wt %): 125.50 ± 14.98 mg/dL
GOT (C57B1/6J mice [1]; TCDD 6.9 μg/kg + UDCA 0.5 wt %): 47.11 ± 1.9 IU/l
GPT (C57B1/6J mice [1]; TCDD 6.9 μg/kg + UDCA 0.5 wt %): 18.78 ± 5.07 IU/l
HDL-C (C57B1/6J mice [1]; TCDD 6.9 μg/kg + UDCA 0.5 wt %): 44.83 ± 2.04 mg/dL
LDL-C (C57B1/6J mice [1]; TCDD 6.9 μg/kg + UDCA 0.5 wt %): 28.33 ± 4.63 mg/dL
TG (C57B1/6J mice [1]; TCDD 6.9 μg/kg + UDCA 0.5 wt %): 84.20 ± 7.66 mg/dL
ALP (C57B1/6J mice [1]; [6]): 75.14 ± 18.33 IU/l
GLU (C57B1/6J mice [1]; [6]): 55.22 ± 9.34 mg/dL
GOT (C57B1/6J mice [1]; [6]): 75.22 ± 6.38 IU/l
GPT (C57B1/6J mice [1]; [6]): 54.67 ± 23.28 IU/l
HDL-C (C57B1/6J mice [1]; [6]): 34.78 ± 4.35 mg/dL
LDL-C (C57B1/6J mice [1]; [6]): 2.40 ± 1.14 mg/dL
TG (C57B1/6J mice [1]; [6]): 98.78 ± 17.14 mg/dL
ALP (C57B1/6J mice [1]; [7]): 79.63 ± 6.07 IU/l
GLU (C57B1/6J mice [1]; [7]): 82.44 ± 13.04 mg/dL
GOT (C57B1/6J mice [1]; [7]): 58.67 ± 5.54 IU/l
GPT (C57B1/6J mice [1]; [7]): 42.11 ± 22.05 IU/l
HDL-C (C57B1/6J mice [1]; [7]): 37.44 ± 3.64 mg/dL
LDL-C (C57B1/6J mice [1]; [7]): 4.29 ± 4.03 mg/dL
TG (C57B1/6J mice [1]; [7]): 97.00 ± 17.68 mg/dL
ALP (C57B1/6J mice [1]; [8]): 80.57 ± 14.52 IU/l
GLU (C57B1/6J mice [1]; [8]): 64.22 ± 9.35 mg/dL
GOT (C57B1/6J mice [1]; [8]): 96.67 ± 31.63 IU/l
GPT (C57B1/6J mice [1]; [8]): 45.38 ± 21.74 IU/l
HDL-C (C57B1/6J mice [1]; [8]): 47.00 ± 7.66 mg/dL
LDL-C (C57B1/6J mice [1]; [8]): 15.33 mg/dL
TG (C57B1/6J mice [1]; [8]): 133.33 ± 13.17 mg/dL
Death rate (C57B1/6J mice [2]; [4]): 0%
No. of dead mice/No. of administered mice (C57B1/6J mice [2]; [4]): 0/10
Death rate (C57B1/6J mice [2]; [5]): 0%
No. of dead mice/No. of administered mice (C57B1/6J mice [2]; [5]): 0/10
Death rate (C57B1/6J mice [2]; TCDD 6.9 μg/kg + UDCA 0.5 wt %): 0%
No. of dead mice/No. of administered mice (C57B1/6J mice [2]; TCDD 6.9 μg/kg + UDCA 0.5 wt %): 0/10
No. of dead mice/No. of administered mice (C57B1/6J mice [2]; [6]): 0/10
No. of dead mice/No. of administered mice (C57B1/6J mice [2]; [7]): 0/10
No. of dead mice/No. of administered mice (C57B1/6J mice [2]; [8]): 0/10
Death time (Mean ± SD) (C57B1/6J mice [2]; [9]): 33 ± 4 days
No. of dead mice/No. of administered mice (C57B1/6J mice [2]; [9]): 10/10
Death rate (C57B1/6J mice [2]; [10]): 90%
Death time (Mean ± SD) (C57B1/6J mice [2]; [10]): 34 ± 5 days
No. of dead mice/No. of administered mice (C57B1/6J mice [2]; [10]): 9/10
Death rate (C57B1/6J mice [2]; [11]): 40%
Death time (Mean ± SD) (C57B1/6J mice [2]; [11]): 51 ± 8 days
No. of dead mice/No. of administered mice (C57B1/6J mice [2]; [11]): 4/10
BASO (C57B1/6J mice [3]): 0.12 ± 0.07 10^3
EOS (C57B1/6J mice [3]): 0.004 ± 0.005 10^3
HCT (C57B1/6J mice [3]): 44.61 ± 1.14%
HGB (C57B1/6J mice [3]): 14.35 ± 0.37 g/dL
LYM (C57B1/6J mice [3]): 5.06 ± 1.70 10^3
MCH (C57B1/6J mice [3]): 14.87 ± 0.22 pg
MCHC (C57B1/6J mice [3]): 32.18 ± 0.43 g/dL
MCV (C57B1/6J mice [3]): 46.18 ± 0.55 fL
MONO (C57B1/6J mice [3]): 0.05 ± 0.06 10^3
NEU (C57B1/6J mice [3]): 0.32 ± 0.13 10^3
PLT (C57B1/6J mice [3]): 1117.7 ± 88.65 10^3
RBC (C57B1/6J mice [3]): 9.66 ± 0.24 10^6
